Measurements from patent US11396499B2, “Lysosomal acid lipase assay” (University of Washington, priority 2018, dated 2022).

Assays:
[1] = molecular target: T1, lysosomal acid lipase (LAL) (Homo sapiens, UniProt P38571); assay: Testing potential LAL substrates with DBS; format: biochemical
T1 construct: from tissue; host or cells: dried blood spots (DBS) from healthy adults, healthy children and LAL-deficient patients
T1 sequence (P38571 77-399): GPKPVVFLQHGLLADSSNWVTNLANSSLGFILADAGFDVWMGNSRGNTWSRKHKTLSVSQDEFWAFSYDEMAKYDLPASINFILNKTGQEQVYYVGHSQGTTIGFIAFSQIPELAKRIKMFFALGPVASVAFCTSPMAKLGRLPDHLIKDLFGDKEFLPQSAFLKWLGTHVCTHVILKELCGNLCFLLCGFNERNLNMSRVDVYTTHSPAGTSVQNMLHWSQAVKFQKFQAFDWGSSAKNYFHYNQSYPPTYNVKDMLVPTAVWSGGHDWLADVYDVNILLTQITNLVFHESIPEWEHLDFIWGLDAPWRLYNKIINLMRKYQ
Method: Compound 8. Assay cocktail contained 0.69 mM Compound 8, 10 mM internal standard (analog of the product containing an n-hexanoyl amide tail instead of the n-pentanoyl amide tail) in 0.15 M sodium acetate, pH 4.02, containing 0.1% Triton X-100. Assay cocktail (30 mL) was added to a 3 mm DBS punch from a normal adult and 10 mL of 30 mM aqueous Lalistat-2 or H2O was added, and the mixture was incubated at 37° C. for 16 hr in an Eppendorf tube with orbital shaking at 250 rpm. The assay was quenched by addition of 120 mL of acetonitrile. The sample was centrifuged for 5 min at 3000×g, and 120 mL of supernatant was transferred to an autosampler plate. Water (60 mL) was added to the well, and 10 mL was injected for UPLC-MS/MS. Compound 8 product was analyzed by UPLC-MS/MS using the authentic product as a standard to establish UPLC and MS/MS conditions.
Compound 9. Assay cocktail contained 0.3 mM Compound 9 (from a 10 mM DMSO stock) in a 14:1 solution of 0.15 M sodium acetate pH 4.0 1% Triton-X-100 and 0.5% m/v cardiolipin in methanol. […] Compound 9 product was analyzed by UPLC-MS/MS using the authentic product as a standard to establish UPLC and MS/MS conditions.
Compounds 10-13. […] Samples were immediately read on a plate-reader fluorometer with an excitation wavelength of 355 nm and emission wavelength of 460 nm. […]

[2] = molecular target: T1, lysosomal acid lipase (LAL); assay: Previous fluorometric LAL assay (Hamilton et al.) with palmitoyl-4MU with and without Lalistat-2 in DBS; format: biochemical
Source text: LAL is detected in leukocytes or fibroblasts using radiometric, immunologic, or fluorescence assays (The metabolic and molecular bases of inherited disease. 8th Ed. New York (NY): McGraw-Hill; 2001. p. 3827-3387). Hamilton and colleagues recently developed a fluorometric assay to detect LAL in dried blood spots (DBS) (Hamilton et al., Clin Chim Acta 2012; 413:1207-10). The assay is based on the release of 4-methylumbelliferone from its ester with palmitic acid. However, the substrate is not specific for LAL, and the method requires two assays performed in parallel, the first in the presence of a LAL-specific covalent inactivator Lalistat-2. LAL activity is calculated from the difference in these 2 assays.
A concentration of P-PMHC in the mixture of 3 mmol/L was settled on based on a combination of high LAL activity and minimal background. The original assay described by Hamilton et al. (Clin Chim Acta 2012; 413:1207-10) used 40 μL of an aqueous extract of a 3-mm DBS added to 160 μL of assay mixture. To keep the solvent volumes for the liquid-liquid extraction to a minimum, thus avoiding long times for solvent removal, 10 μL of an aqueous extract of a 3-mm DBS punch was added to 30 μL of assay mixture.

Row | Molecule | detectable LAL activity when tested with DBS [1] | specific activity for the LAL component ([2]; 3-mm punch from an identical DBS, previous fluorometric assay with and without Lalistat-2) [µmol/h/L] | fold lower than the activity measured with the UPLC-MS/MS assay ([2]; 466 versus 874 μmol/h/L, identical DBS) [fold] | fraction of the substrate hydrolyzed by esterases/lipases in DBS other than LAL ([2]; DBS)
1 | 4-propyl-8-methyl-7-palmitoyloxycoumarin [Compound 1] | None of these compounds displayed detectable LAL activity |  |  | 
2 | CCCCCCCCCCCCCCCC(=O)Oc1ccc2c(C)cc(=O)oc2c1 [palmitoyl-4MU] | displayed measurable LAL activity | 466 | 1.9 | about one third
